Data taken from BindingDB's records for doi:10.7270/Q2TX3CTT (Broad Institute, 2010).

The compounds below were run against Glycogen synthase kinase-3 beta (Homo sapiens, UniProt P49841) (assay: GSK3beta kinase inhibitor potency, dose response, biochemical, luminescence, cell-free homogeneous, retest (AID 434954)).
Glycogen synthase kinase-3 beta, sequence (P49841 whole entry): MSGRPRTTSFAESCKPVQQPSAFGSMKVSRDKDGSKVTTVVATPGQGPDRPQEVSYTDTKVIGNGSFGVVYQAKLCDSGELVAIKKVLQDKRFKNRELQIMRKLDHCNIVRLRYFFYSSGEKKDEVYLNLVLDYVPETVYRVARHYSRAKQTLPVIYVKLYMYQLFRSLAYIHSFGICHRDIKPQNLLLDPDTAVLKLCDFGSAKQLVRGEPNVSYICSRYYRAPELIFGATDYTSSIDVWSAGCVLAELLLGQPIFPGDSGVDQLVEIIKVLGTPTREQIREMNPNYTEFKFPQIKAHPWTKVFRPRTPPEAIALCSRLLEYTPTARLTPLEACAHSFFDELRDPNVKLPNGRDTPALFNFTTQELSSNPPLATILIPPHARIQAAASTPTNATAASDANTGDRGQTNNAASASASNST

| EC50 [µM] | Structure (SMILES) |
| --- | --- |
| > 300 | CCOC(=O)Cc1csc(NC(=O)CSc2nc(-c3ccccc3)c(C#N)c(=O)[nH]2)n1 [MLS000690700] |
| > 300 | COCCNC(=O)c1ccc(Cl)c(Cl)c1 [SMR000069998] |
| > 300 | CCOC(=O)c1sc2c(c1C)C(c1cccs1)C1C(=O)CCCC1=N2 (stereo unspecified) [MLS000082170] |
| > 300 | Cc1nn(C)c(C(=O)N2CCc3ccccc32)c1Br [SMR000228334] |
| > 300 | Cc1nc2nc(=O)c3c(n2[nH]1)NC1=C(C(=O)CC(C)(C)C1)C3c1ccc(F)cc1 (stereo unspecified) [MLS000084336] |
| > 300 | CCOCCOC(=O)c1ccc(-n2cnc(C)n2)nc1 [SMR000337218] |
| > 300 | CC(=O)C(Sc1ccc2nnc(-c3ccc(F)cc3)n2n1)C(C)=O [SMR000016797] |
| > 300 | O=C(c1ccc(Cl)nc1)N1CCN(C/C=C/c2ccccc2)CC1 [SMR000352615] |
| > 300 | CC(C)Nc1nc(-c2ccncc2)nc(-c2ccccc2)c1C#N [SMR000549424] |
| > 300 | CCOC(=O)c1cnc2ccccc2c1Nc1ccc(C(=O)O)cc1 [SMR000299060] |
| > 300 | CC(C)N1C(=O)N(c2ccc(Cl)cc2)C(C)(O)CC1(C)C (stereo unspecified) [SMR000539554] |
| > 300 | Oc1cc(-c2c[nH]c3ccccc23)c(O)n1-c1ccccc1 [MLS000121758] |
| 39.8 | CC1=C(C#N)C(=O)NC(=O)C1=NNc1ccc(Cl)c(C(=O)O)c1 [MLS001213189] |

More lines, now with the values behind:

| Structure (SMILES) | EC50 [µM] |
| --- | --- |
| COc1ccc(C(=O)OCCc2sc[n+](CC(=O)c3ccccc3)c2C)cc1 [4-methoxybenzoic acid 2-(4-methyl-3-phenacyl-5-thiazol-3-iumyl)ethyl ester;bromide] | 26 |
| O=C1N=C(S)SC1=Cc1ccc(N2CCOCC2)o1 | 8.5 |
| CCOc1cc(C2Nc3ccccc3N=C3CC(C)(C)CC(=O)C32)ccc1O (stereo unspecified) [6-(3-ethoxy-4-hydroxyphenyl)-9,9-dimethyl-6,8,10,11-tetrahydro-5H-benzo[b][1,4]benzodiazepin-7-one] | > 300 |
| CCCn1nc(NC(=O)C2CCCO2)c2cc3ccc(C)cc3nc21 (stereo unspecified) [N-(7-methyl-1-propyl-pyrazolo[3,4-b]quinolin-3-yl)oxolane-2-carboxamide] | > 300 |
| NC(=O)CN(c1ccc([N+](=O)[O-])cc1)S(=O)(=O)c1ccccc1 [2-[N-(benzenesulfonyl)-4-nitroanilino]acetamide] | > 300 |
| O=C(Nc1ccccc1Cl)N1CCSc2ccccc21 [N-(2-chlorophenyl)-2,3-dihydro-4H-1,4-benzothiazine-4-carboxamide] | > 300 |
| Cc1ccc2nc(-c3ccc4c(c3)NC(=O)CO4)cn2c1 [6-(6-methyl-2-imidazo[1,2-a]pyridinyl)-4H-1,4-benzoxazin-3-one] | > 300 |
| O=C(Nc1ccc(O)c2c(=O)cc(-c3ccccc3Cl)oc12)c1ccc(Cl)c(Cl)c1 | 117 |
| O=C(NC(=O)c1ccccc1)Nc1ccccn1 [N-(pyridin-2-ylcarbamoyl)benzamide] | 51.2 |
| COc1cccc(-c2c(C(=O)NN=C(C)c3ccncc3)nnn2-c2nonc2N)c1 [1-(4-amino-1,2,5-oxadiazol-3-yl)-5-(3-methoxyphenyl)-N-(1-pyridin-4-ylethylideneamino)-4-triazolecarboxamide] | 19 |
| COc1ccc(CC(=O)N2C[C@H]3C[C@@H](C2)c2cccc(=O)n2C3)cc1 [SMR000646314] | > 300 |
| CC1(C)CC(=O)C=C(Nc2ccccc2O)C1 [3-[(2-hydroxyphenyl)amino]-5,5-dimethyl-cyclohex-2-en-1-one] | > 300 |
| CCOc1ccc2c(c1)C(=O)C(=O)N2CC1COc2ccccc2O1 (stereo unspecified) [1-(2,3-dihydro-1,4-benzodioxin-3-ylmethyl)-5-ethoxy-indole-2,3-dione] | > 300 |
| CC1(C)CC(=O)C=C(Nc2cc(-c3ccccc3)n[nH]2)C1 | 12.9 |
| CCOC(=O)c1cnc2ccc(C(=O)OC)cc2c1Nc1ccc2c(c1)OCCO2 [4-(2,3-Dihydro-benzo[1,4]dioxin-6-ylamino)-quinoline-3,6-dicarboxylic acid 3-ethyl ester 6-methyl ester] | 9.12 |
| COc1ccc(Nc2nc3ccccc3s2)cc1 [1,3-benzothiazol-2-yl-(4-methoxyphenyl)amine] | > 300 |
| COc1ccc(C2C(C(C)=O)C(=O)C(=O)N2c2nccs2)c(OC)c1 (stereo unspecified) [3-acetyl-2-(2,4-dimethoxyphenyl)-4-hydroxy-1-(1,3-thiazol-2-yl)-2H-pyrrol-5-one] | > 300 |

| Structure (SMILES) | EC50 [µM] |
| --- | --- |
| OC1(C#CCN2CCOCC2)CCCCC1 | > 300 |
| CCNc1ccc(S(=O)(=O)N(C)C)cc1NCC(=O)Nc1ccc(Br)cc1F [N-(4-bromanyl-2-fluoranyl-phenyl)-2-[[5-(dimethylsulfamoyl)-2-(ethylamino)phenyl]amino]ethanamide] | > 300 |
| Cc1cc(NC(=O)/C=C/c2cccc(F)c2)n(-c2nc3ccccc3[nH]2)n1 [(E)-N-[2-(1H-benzimidazol-2-yl)-5-methylpyrazol-3-yl]-3-(3-fluorophenyl)prop-2-enamide] | > 300 |
| Cc1ccc2nc3c(cc2c1)c(NC(=O)C(C)(C)C)nn3CC(C)C [2,2-dimethyl-N-[6-methyl-1-(2-methylpropyl)pyrazolo[3,4-b]quinolin-3-yl]propanamide] | > 300 |
| CNc1nc(N)c([N+](=O)[O-])c(Nc2ccccc2OC)n1 [N4-(2-methoxyphenyl)-N2-methyl-5-nitro-pyrimidine-2,4,6-triamine] | 3.44 |
| CC1CCN(c2nc3c(N)ncnc3n2[C@@H]2O[C@H](CO)[C@@H](O)[C@H]2O)CC1 | > 300 |
| CCOC(=O)c1c(S(=O)(=O)NCC(=O)NCc2ccc(C)cc2)c(C)n(C)c1C [ethyl 1,2,5-trimethyl-4-[[2-[(4-methylphenyl)methylamino]-2-oxoethyl]sulfamoyl]pyrrole-3-carboxylate] | > 300 |
| Nc1nonc1-n1nnc(C(=O)NN=Cc2ccccc2)c1CN1CCc2ccccc21 [1-(4-amino-1,2,5-oxadiazol-3-yl)-5-(2,3-dihydroindol-1-ylmethyl)-N-[(phenylmethylene)amino]-4-triazolecarboxamide] | 3.62 |
| O=C(Nc1ccncc1)Nc1ccccn1 [1-pyridin-2-yl-3-pyridin-4-yl-urea] | 4.96 |
| CCCC(NC(=O)Cc1c(C)c2c(cc(C)c3c(C)coc32)oc1=O)C(=O)O (stereo unspecified) [2-[[2-(3,4,9-trimethyl-7-oxofuro[2,3-f]chromen-8-yl)acetyl]amino]pentanoic acid] | > 300 |
| Cc1onc(-c2ccccc2)c1C(=O)n1cccn1 | > 300 |
| COc1ccc(C(C)(C)C)cc1NS(=O)(=O)c1cccc2cccnc12 | > 300 |
| COc1ccc(S(=O)(=O)NCC(c2ccc3c(c2)OCO3)N2CCOCC2)cc1 (stereo unspecified) [N-[2-(1,3-benzodioxol-5-yl)-2-morpholin-4-ylethyl]-4-methoxybenzenesulfonamide] | > 300 |
| CCNc1nc(SCC(N)=O)nc2sc3c(c12)CCN(C)C3 [2-[[4-(ethylamino)-7-methyl-6,8-dihydro-5H-pyrido[4,5]thieno[1,2-c]pyrimidin-2-yl]sulfanyl]acetamide] | 49.4 |
| CCOC(=O)c1sc(NC(=O)CSc2nnc(C(C)C)n2C)nc1C [2-[2-(5-Isopropyl-4-methyl-4H-[1,2,4]triazol-3-ylsulfanyl)-acetylamino]-4-methyl-thiazole-5-carboxylic acid ethyl ester] | 26 |
| CCN1CCN(c2c(C(=O)c3ccc(OC)cc3)cnc3ccccc23)CC1 [[4-(4-ethylpiperazin-1-yl)quinolin-3-yl](4-methoxyphenyl)methanone] | > 300 |
